A short description of data set [1]: Selectivity index, ratio of CC50 for African green monkey Vero cells to IC50 for Trichomonas vaginalis JH31A#4 trophozite. The format is functional.
Data set [2] deals with Trichomonas vaginalis. Nature of the data set: Trichomonicidal activity against Trichomonas vaginalis JH31A#4 trophozite assessed as inhibition of parasite growth at 300 uM after 24 hrs by resazurin redox dye based fluorimetric microtiter method. It is filed as functional. Conditions: JH31A#4, 24 h. For orientation: Resazurin is reduced to fluorescent resorufin, in cell work by metabolically active cells.

For the next data set, the system named is Vero. Nature of the data set: Cytotoxicity against African green monkey Vero cells at 300 uM after 24 hrs by resazurin redox dye based fluorimetric microtiter method. It is filed as cell-based. Conditions: chlorocebus sabaeus.
Data set [3] relates to Trichomonas vaginalis. Nature of the data set: Trichomonicidal activity against Trichomonas vaginalis JH31A#4 trophozite assessed as inhibition of parasite growth at 150 uM after 24 hrs by resazurin redox dye based fluorimetric microtiter method. It is filed as functional. To be noted: JH31A#4, 24 h.
Data set [4] concerns Trichomonas vaginalis. In words: Trichomonicidal activity against Trichomonas vaginalis JH31A#4 trophozite assessed as inhibition of parasite growth at 18.75 uM after 24 hrs by resazurin redox dye based fluorimetric microtiter method. The format is functional. Conditions: JH31A#4, 24 h.
Data set [5] concerns Trichomonas vaginalis. Nature of the data set: Trichomonicidal activity against Trichomonas vaginalis JH31A#4 trophozite assessed as inhibition of parasite growth at 37.5 uM after 24 hrs by resazurin redox dye based fluorimetric microtiter method. The format is functional. Conditions: JH31A#4, 24 h.
Data set [6] is described as follows: Cytotoxicity against African green monkey Vero cells assessed as inhibition of cell growth after 24 hrs by resazurin redox dye based fluorimetric microtiter method. To be noted: chlorocebus sabaeus.
The test system of data set [7] is Trichomonas vaginalis. In words: Trichomonicidal activity against Trichomonas vaginalis JH31A#4 trophozite assessed as inhibition of parasite growth at 75 uM after 24 hrs by resazurin redox dye based fluorimetric microtiter method. The format is functional. To be noted: JH31A#4, 24 h.
For data set [8], the system named is Trichomonas vaginalis. Nature of the data set: Trichomonicidal activity against Trichomonas vaginalis JH31A#4 trophozite assessed as inhibition of parasite growth after 24 hrs by resazurin redox dye based fluorimetric microtiter method. The format is functional, organism-based. Conditions: JH31A#4, 24 h.
The test system of data set [9] is Trichomonas vaginalis. Nature of the data set: Trichomonicidal activity against Trichomonas vaginalis JH31A#4 trophozite assessed as inhibition of parasite growth at 9.37 uM after 24 hrs by resazurin redox dye based fluorimetric microtiter method. It is filed as functional. Conditions: JH31A#4, 24 h.
For data set [10], the system named is Trichomonas vaginalis. In words: Trichomonicidal activity against Trichomonas vaginalis JH31A#4 trophozite assessed as inhibition of parasite growth at 10 ug/ml after 24 hrs by resazurin redox dye based fluorimetric microtiter method. It is filed as functional. Conditions: JH31A#4, 24 h, read-out: GI.

Molecules are shown by their SMILES. Bounds are passed on as bounds.

As a reminder, the inhibition is the change of the read-out against control, counted positive when it falls. One may read the CC50 as the concentration that lowers cell viability or growth by half. The IC50 is the point on the concentration scale where inhibition reaches its midpoint. `Cl.O=C1CN(CCN2CCCCC2)c2ccc([N+](=O)[O-])cc2N1`: in [1], the “Ratio CC50/IC50” value is on record as over 10. Also, in the data set with Trichomonas vaginalis [2], the inhibition at 300 µM stood at 99%. The Activity in the data set with Vero was determined as 1.51%. Also, the inhibition at 150 µM with Trichomonas vaginalis [3] amounted to 82.2%. In the data set with Trichomonas vaginalis [4], the inhibition at 18.75 µM worked out at 32.7%. Further, the inhibition at 37.5 µM in the data set on Trichomonas vaginalis [5] stood at 45.6%. Besides, the CC50 at 24 h in data set [6] is over 300 µM. Besides, the inhibition at 75 µM in the data set with Trichomonas vaginalis [7] was 78.3%. Moreover, in the data set on Trichomonas vaginalis [8], the IC50 is 30.7 µM. Moreover, the inhibition at 9.37 µM in the data set with Trichomonas vaginalis [9] is 26%.
With `O=C1Nc2cc([N+](=O)[O-])ccc2N2CCCOC12` (stereo not given), the “Ratio CC50/IC50” value in data set [1] is listed as over 10. Moreover, in the data set on Trichomonas vaginalis [2], the inhibition at 300 µM turned out to be 99.5%. Further, in the data set on Vero, the Activity is on record as 2.08%. Moreover, the inhibition at 150 µM in the data set on Trichomonas vaginalis [3] stood at 92.8%. Besides, the inhibition at 18.75 µM in the data set on Trichomonas vaginalis [4] stood at 12.1%. For the same compound, the inhibition at 37.5 µM in the data set on Trichomonas vaginalis [5] turned out to be 51.3%. Further, the CC50 at 24 h in [6] was over 300 µM. In the data set with Trichomonas vaginalis [7], the inhibition at 75 µM was 77.4%. In addition, the IC50 in the data set on Trichomonas vaginalis [8] is 41.9 µM. Also, the inhibition at 9.37 µM with Trichomonas vaginalis [9] was 0.98%.
For `Cn1c(=O)c(=O)[nH]c2cc([N+](=O)[O-])ccc21`, in the data set with Trichomonas vaginalis [2], the inhibition at 300 µM was 41.7%. The inhibition at 150 µM in the data set with Trichomonas vaginalis [3] was determined as 39%. The inhibition at 18.75 µM in the data set with Trichomonas vaginalis [4] was determined as 17.8%. Further, in the data set with Trichomonas vaginalis [5], the inhibition at 37.5 µM amounted to 33.7%. In addition, in the data set with Trichomonas vaginalis [7], the inhibition at 75 µM came out at 38.6%. In addition, in the data set with Trichomonas vaginalis [8], the IC50 was 111 µM. For the same compound, the inhibition at 9.37 µM with Trichomonas vaginalis [9] came out at 8.89%.
For `Cn1c(=O)c(=O)n(CCCCCBr)c2ccc([N+](=O)[O-])cc21`, the inhibition at 300 µM in the data set with Trichomonas vaginalis [2] was 51.1%. The inhibition at 150 µM in the data set with Trichomonas vaginalis [3] is 42.8%. In the data set with Trichomonas vaginalis [4], the inhibition at 18.75 µM was 21.5%. In addition, the inhibition at 37.5 µM in the data set on Trichomonas vaginalis [5] is 26.9%. Besides, the inhibition at 75 µM in the data set on Trichomonas vaginalis [7] was found to be 40.9%. Also, the IC50 with Trichomonas vaginalis [8] worked out at 256 µM. Besides, the inhibition at 9.37 µM with Trichomonas vaginalis [9] was 17.8%.
As for `Cn1c(=O)c(=O)n(CCCCCl)c2ccc([N+](=O)[O-])cc21`, the inhibition at 300 µM with Trichomonas vaginalis [2] was 68.5%. Moreover, the inhibition at 150 µM in the data set with Trichomonas vaginalis [3] came out at 52.7%. Besides, in the data set on Trichomonas vaginalis [4], the inhibition at 18.75 µM was determined as 19.9%. Moreover, the inhibition at 37.5 µM in the data set with Trichomonas vaginalis [5] is 20.1%. Moreover, in the data set on Trichomonas vaginalis [7], the inhibition at 75 µM worked out at 36.2%. Moreover, in the data set with Trichomonas vaginalis [8], the IC50 worked out at 179 µM. The inhibition at 9.37 µM with Trichomonas vaginalis [9] was determined as 11.8%.
Consider `O=C1CN(CCCO)c2ccc([N+](=O)[O-])cc2N1`, for which, in the data set with Trichomonas vaginalis [2], the inhibition at 300 µM amounted to 84%. In addition, in the data set with Trichomonas vaginalis [3], the inhibition at 150 µM worked out at 68.1%. Besides, in the data set on Trichomonas vaginalis [4], the inhibition at 18.75 µM worked out at 4.5%. In addition, the inhibition at 37.5 µM in the data set with Trichomonas vaginalis [5] stood at 26.6%. Also, the inhibition at 75 µM in the data set on Trichomonas vaginalis [7] is 28.4%. Besides, the IC50 with Trichomonas vaginalis [8] amounted to 102 µM. Further, the inhibition at 9.37 µM in the data set on Trichomonas vaginalis [9] came out at 3.66%.
Regarding `Cn1c(=O)c(=O)n(CCCCCCl)c2ccc([N+](=O)[O-])cc21`, in data set [1], the “Ratio CC50/IC50” value is over 10. Besides, in the data set on Trichomonas vaginalis [2], the inhibition at 300 µM is 70.2%. Further, the Activity in the data set on Vero is given as 0%. Further, the inhibition at 150 µM in the data set with Trichomonas vaginalis [3] was determined as 66.2%. Moreover, the inhibition at 18.75 µM in the data set on Trichomonas vaginalis [4] amounted to 40.1%. For the same compound, the inhibition at 37.5 µM in the data set with Trichomonas vaginalis [5] was 45.7%. For the same compound, in data set [6], the CC50 at 24 h is over 300 µM. Further, the inhibition at 75 µM in the data set on Trichomonas vaginalis [7] was determined as 52.2%. Also, the IC50 with Trichomonas vaginalis [8] is 61.4 µM. In addition, the inhibition at 9.37 µM in the data set with Trichomonas vaginalis [9] came to 22.1%.
Take `Cn1c(=O)c(=O)n(C)c2cc([N+](=O)[O-])ccc21`: the inhibition at 300 µM with Trichomonas vaginalis [2] stood at 61.4%. For the same compound, the inhibition at 150 µM in the data set on Trichomonas vaginalis [3] was found to be 35.4%. Moreover, in the data set on Trichomonas vaginalis [4], the inhibition at 18.75 µM worked out at 15.8%. Besides, the inhibition at 37.5 µM in the data set on Trichomonas vaginalis [5] was 18.6%. In the data set with Trichomonas vaginalis [7], the inhibition at 75 µM was 22.5%. The IC50 in the data set with Trichomonas vaginalis [8] was determined as 235 µM. For the same compound, the inhibition at 9.37 µM in the data set on Trichomonas vaginalis [9] was 12.9%.
For `CN1C(=O)CN(CCCCCl)c2ccc([N+](=O)[O-])cc21`, the inhibition of growth at 10 µg/mL with Trichomonas vaginalis [10] amounted to 73%.
Take `CCN(CC)CCCN1CC(=O)N(C)c2cc([N+](=O)[O-])ccc21.Cl`: the “Ratio CC50/IC50” value in [1] came to 38.07. The inhibition at 300 µM in the data set with Trichomonas vaginalis [2] came out at 100%. This compound had an Activity with Vero of 10.81%. The inhibition at 150 µM in the data set with Trichomonas vaginalis [3] is 100%. In the data set with Trichomonas vaginalis [4], the inhibition at 18.75 µM stood at 14%. Further, the inhibition at 37.5 µM in the data set with Trichomonas vaginalis [5] is 55.5%. Moreover, the CC50 at 24 h in data set [6] was determined as 1240 µM. For the same compound, the inhibition at 75 µM in the data set with Trichomonas vaginalis [7] is 96.1%. Also, the IC50 in the data set with Trichomonas vaginalis [8] amounted to 32.4 µM. Further, in the data set on Trichomonas vaginalis [9], the inhibition at 9.37 µM was found to be 1.8%.
On to `O=C1CN(CCCCCCCl)c2ccc([N+](=O)[O-])cc2N1`, for which, in the data set on Trichomonas vaginalis [10], the inhibition of growth at 10 µg/mL worked out at 73%.
For `CN1C(=O)CN(CCCN2CCCCC2)c2ccc([N+](=O)[O-])cc21`, the inhibition at 300 µM with Trichomonas vaginalis [2] was determined as 99.3%. In the data set on Trichomonas vaginalis [3], the inhibition at 150 µM was 63.3%. Also, the inhibition at 18.75 µM with Trichomonas vaginalis [4] was determined as 18.6%. In the data set on Trichomonas vaginalis [5], the inhibition at 37.5 µM came out at 26.6%. In addition, the inhibition of growth at 10 µg/mL with Trichomonas vaginalis [10] came out at 7%. In addition, the inhibition at 75 µM with Trichomonas vaginalis [7] is 28.4%. For the same compound, in the data set on Trichomonas vaginalis [8], the IC50 amounted to 110 µM. For the same compound, the inhibition at 9.37 µM in the data set on Trichomonas vaginalis [9] is 6.97%.

These data come from ChEMBL document CHEMBL3576838, “Synthesis and in vitro and in vivo biological evaluation of substituted nitroquinoxalin-2-ones and 2,3-diones as novel trichomonacidal agents” (Eur J Med Chem, 2015).
